This is an account of results in US8541455B2, “Derivatives of 2-pyridin-2-yl-pyrazol-3(2H)-one, preparation and therapeutic use thereof as HIF activators” (Sanofi, priority 2008, dated 2013).

The subject of data set [1] is EPO secretion by Hep3B cells. Briefly: Measurement of the secretion of EPO by Hep3B hepatocytes (ELISA on supernatant). The class given is cell-based. The following applies: Homo sapiens, 18 hours incubation under normoxia, EPO in supernatant, 50% of the maximum response of this same compound. From the text: (§1) 2. Measurement of the Secretion of VEGF and EPO by Hep3B Hepatocytes 2.1. Object
(§2) HIF is a transcription factor involved in the adaptation of cells to hypoxia. Since the genes activated by HIF are involved in the adaptive response of cells to hypoxia and of tissues to ischaemia, the object is to identify and characterize compounds that stabilize HIF1-alpha in cells in order to amplify or mimic its beneficial effect. HIF1-alpha was identified following the analysis of the EPO gene promoter, which makes this protein one of the first markers of HIF1-alpha activation. Moreover, VEGF is also identified in the literature as one of the main markers of HIF activation. It is for this reason that measurement of these two proteins was selected for characterizing compounds that are HIF activators in Hep3B cells.
(§3) The object was thus to develop a sensitive screening test, adaptable to 96-well plates, for directly measuring the amount of VEGF and EPO in the supernatant of the Hep3B cells (cells derived from a human hepatocarcinoma) in response to the potential HIF activators.
(§4) The test is an ELISA test for measuring VEGF and EPO in the supernatant of Hep3B cells treated under hypoxia or with deferoxamine as controls or with the potential HIF activators. The test was adapted to a 96-well plate, allowing greater compound screening capacity.
(§5) • 2.3.1 Experiment Plan • 1) Inoculation of the cells on D0 • 2) Adherence for 6 hours under normoxia • 3) Preparation and addition of the products (Biomek 2000 and FX) • 4) Incubation under normoxia for 18 hours • 5) EPO and VEGF assay in the supernatant on D+1 • 2.3.2 Inoculation of the Cells
(§6) The cells are subcultured into 100 μl of culture medium (10% FCS) in black, opaque-bottomed 96-well plates (reference Costar 3916) at 30 000 cells/well, with Multidrop. • 2.3.3 Treatment of the Cells
(§7) The test products are prepared at 10^−2 M in 100% DMSO and then diluted to […] in medium containing 0.1% FCS (6 μl in 194 μl of MEM). 200 μl of each compound are deposited in column 12 of a 96-well plate. Dilution ranges from […] to 3×10^−8M are prepared with Biomek 2000 (programme: range of 9 points in series). 100 μl of MEM 0.1% FCS and Deferoxamine 5×10^−3M are added as controls to column 3 and, respectively, to wells A,B,C,D and wells E,F,G,H • DL Plate Distribution in Cell Plates
(§8) The medium of the cells inoculated the day before into 96-well plates is changed for 90 μl of medium containing 0.1% FCS and 10 μl are distributed with FX 96 from the 96-well DL plates to the cell plates.
(§9) The cell plates thus treated are placed for 18 hours in an incubator at 37° C. (ambient O2, 6% CO2).
(§10) The supernatants (80 μl) of the Hep3B cells in the 96-well plates treated with the potential HIF activators are recovered with a multichannel pipette for simultaneous assay of the VEGF and the EPO by ELISA according to the supplier's instructions (Kit EPO Mesoscale (ref K15122B-2)).
(§11) The activating activity of a compound with respect to HIF is given by the concentration that produces 50% of the maximum response of this same compound in Table IV below.
A general note: An ELISA detects its analyte on a solid surface through an enzyme-linked reagent.

Data set [2] relates to HIF1-alpha. Briefly: Measurement of the stabilization of HIF1-alpha in HEKEA cells (beta-galactosidase complementation, luminescence). It is filed as cell-based, human. To be noted: HEKEA_HIF1-alphaPLBL cells, 6 hours incubation under normoxia; concentration that produces 50% of the maximum response of this same compound. The text has this:
Furthermore, a subject of the invention is also a uniform test process for the direct measurement by beta-galactosidase complementation of the amount of HIF1-alpha protein in the nucleus of cells, preferably HEK cells, after treating the said cells with one or more test compounds, which consists in: • (a) inoculating, preferably in 384-well plates, the said cells in a suitable culture medium, preferably 1% foetal calf serum (abbreviated as FCS); • (b) adding the test compound(s) at a suitable concentration in a suitable solvent to the cells previously inoculated in the said culture medium; preferably the test compounds are diluted in 0.1% FCS; • (c) incubating the said cells thus prepared in an indicator at about 37° C., advantageously for about 6 hours; • (d) lysing the cells with a lysis buffer containing a chemiluminescent substrate for beta-galactosidase; • (e) incubating in the absence of light, before reading and measuring the luminescence, which is a function of the beta-galactosidase activity.
Many tests exist describing the indirect measurement of the activity of HIF via reporter gene systems (HRE-luciferase) or via the measurement of HIF-induced proteins (for example VEGF or EPO). Furthermore, the only tests that allow direct measurement of the amount of HIF1-alpha protein in cells are tests using antibodies, for instance Western blotting comprising phases of cell extraction (total lysates or nuclear extracts) that are consuming in terms of cells and time, thus limiting the compound screening capacity. The object was thus to develop a sensitive screening test, adaptable to 384-well plates, for directly measuring the amount of HIF1-alpha protein in the nucleus of cells. This test was established in HEK cells ([…]).
The test is a cell test based on the principle of enzyme complementation, the enzyme used herein being beta-galactosidase. HEKEA cells are HEK cells stably expressing, and restricted in their nucleus, mutant beta-galactosidase (omega fragment, also known as EA) (line sold by DiscoverX). This construct makes it possible to obtain beta-galactosidase activity only when the protein comprising the Prolabel complementation fragment has migrated into the nucleus.
The protein of interest comprising the Prolabel fragment is in this case an HIF1-alpha or HIF1-alpha mutated at the two prolines 402 and 564 replaced with alanines, is C-terminal fused via molecular biology (DiscoverX vector sold by Clontech) with the small complementation peptide fragment (Prolabel or ED, about 4 kDa). The vector coding for the chimeric protein HIF1-alpha_Prolabel is then transfected into HEKEA cells to obtain stable clones (HEKEA_HIF1-alphaPLBL).
The amount of C-terminal Prolabel-“labelled” HIF1-alpha protein obtained after treating the cells to hypoxia or compounds that are potentially HIF activators is measured by adding to the cells a lysis buffer containing a chemiluminescent substrate for beta-galactosidase.
The measurement of the beta-galactosidase activity will be proportional to the amount of Prolabel and thus of HIF1-alpha that has migrated into the nucleus of the cells.
• 1.3.1 Experiment Plan • 1) Inoculation of the cells on D0 • 2) Adherence for 24 hours under normoxia • 3) Preparation and addition of the products (Biomek 2000 and FX) on D+1 • 4) Incubation under normoxia for 6 hours • 5) Reading of the plates (by luminescence)
The cells are inoculated with Multidrop in white, opaque-bottomed 384-well plates (Greiner ref 3704), in 30 μl of culture medium (1% FCS) at 10 000 cells/well (cell plate). • 1.3.3 Treatment • Preparation of the Dilution Plate (DL Plate)
The test products are prepared at 3×10^−2 M in 100% DMSO and then diluted to 3×10^−4 M in medium containing 0.1% FCS (10 μl in 990 μl of MEM). They are then deposited by hand into column 12 of a round-bottomed 96-well plate (200 μl of each compound) known as the dilution plate (dl). […]

In data set [3] the test system is VEGF secretion by Hep3B cells. Briefly: Measurement of the secretion of VEGF by Hep3B hepatocytes (ELISA on supernatant). The following applies: Homo sapiens, 18 hours incubation under normoxia, VEGF in supernatant, 50% of the maximum response of this same compound. The class given is cell-based.
Description: as §1, §2, §3, §4, §5, §6, §7, §8, §9, §10, §11

Counter-ions that a name gives are not always drawn.

In the case of `CCN(c1ccccc1)S(=O)(=O)c1ccc(-n2[nH]c(C)c(Cc3ccc(Cl)cc3Cl)c2=O)nc1` [Compound 14], the melting point (commonly the temperature of the solid-liquid transition) stood at 178 °C. In data set [1], the EC50 (usually the concentration at which the effect is half-maximal) was found to be 300 nM. For the same molecule, the EC50 in data set [2] turned out to be 3800 nM. `CCN(c1ccccc1)S(=O)(=O)c1ccc(-n2[nH]c(C)c(Cc3c(F)cccc3Cl)c2=O)nc1` [Compound 20, 6-[4-(2-chloro-6-fluorobenzyl)-3-methyl-5-oxo-2,5-dihydro-1H-pyrazol-1-yl]-N-ethyl-N-phenylpyridine-3-sulfonamide]: the EC50 in data set [1] worked out at 1000 nM; in data set [3], 1100 nM. Consider `CCN(c1ccccc1)S(=O)(=O)c1ccc(-n2[nH]c(C)c(Cc3cccc(COC)c3)c2=O)nc1` [Compound 34, N-ethyl-6-{4-[3-(methoxymethyl)benzyl]-3-methyl-5-oxo-2,5-dihydro-1H-pyrazol-1-yl}-N-phenylpyridine-3-sulfonamide], for which the half-maximal effective concentration (EC50) in data set [1] was determined as 900 nM.

Consider `CCN(c1ccccc1)S(=O)(=O)c1ccc(-n2[nH]c(C)c(Cc3cccc(OCCOC)c3)c2=O)nc1` [Compound 38, N-ethyl-6-{4-[3-(2-methoxyethoxy)benzyl]-3-methyl-5-oxo-2,5-dihydro-1H-pyrazol-1-yl}-N-phenylpyridine-3-sulfonamide], for which the melting point was found to be 126 °C. In data set [1], this molecule registered an EC50 of 1000 nM. The molecule also gave an EC50 in data set [2] of 4700 nM. The matching figures for `CCN(c1ccccc1)S(=O)(=O)c1ccc(-n2[nH]c(C)c(Cc3ccc(S(C)(=O)=O)cc3)c2=O)nc1` [Compound 39]: 224 °C, 2000 nM and 1800 nM. As to `CCN(c1ccccc1)S(=O)(=O)c1ccc(-n2[nH]c(C)c(Cc3cccnc3)c2=O)nc1` [Compound 43], the EC50 in data set [1] stood at 1500 nM; in data set [3], 1700 nM; in data set [2] it was 3100 nM. On the same counts, the results for `CCN(c1ccccc1)S(=O)(=O)c1ccc(-n2[nH]c(C)c(Cc3cccc(OCCN(C)C)c3)c2=O)nc1` [Compound 56, 6-(4-{3-[2-(dimethylamino)ethoxy]benzyl}-3-methyl-5-oxo-2,5-dihydro-1H-pyrazol-1-yl)-N-ethyl-N-phenylpyridine-3-sulfonamide hydrochloride] are 2000 nM, 2500 nM and 2100 nM. Take `CCN(c1ccccc1)S(=O)(=O)c1ccc(-n2[nH]c(C)c(CCc3ccccc3)c2=O)nc1` [Compound 74, N-ethyl-6-[3-methyl-5-oxo-4-(2-phenylethyl)-2,5-dihydro-1H-pyrazol-1-yl]-N-phenylpyridine-3-sulfonamide]: the melting point was 158 °C. For the same molecule, the EC50 in data set [1] turned out to be 300 nM. Further, the EC50 in data set [2] was found to be 3700 nM. As to `CC(C)(C)NS(=O)(=O)c1ccc(-n2[nH]cc(Cc3cccnc3)c2=O)nc1` [Compound 98B, N-tert-butyl-6-[5-oxo-4-(pyridin-3-ylmethyl)-2,5-dihydro-1H-pyrazol-1-yl]pyridine-3-sulfonamide hydrochloride], in data set [2], a half-maximal response (EC50) required 2500 nM. For the molecule `COCCOc1cccc(Cc2c(C)[nH]n(-c3ccccn3)c2=O)c1` [Compound 181], the melting point worked out at 68 °C. The same measure, in the same setting: for `Cc1[nH]n(-c2ccccn2)c(=O)c1Cc1ccccc1` [Compound 182] the value was 110 °C; for `Cc1[nH]n(-c2ccccn2)c(=O)c1Cc1cccnc1` [Compound 183], 80 °C; for `COc1ccc(OC)c(Cc2c(C)[nH]n(-c3ccccn3)c2=O)c1` [Compound 184], 62 °C. On the same count and under the same terms, for `Cc1[nH]n(-c2ccccn2)c(=O)c1Cc1cccc(C(F)(F)F)c1` [Compound 185] the value was 78 °C. On the same count and under the same terms, for `Cc1[nH]n(-c2ccccn2)c(=O)c1Cc1ccc(C(F)(F)F)cc1` [Compound 186] the value was 94 °C; for `Cc1[nH]n(-c2ccccn2)c(=O)c1Cc1ccccc1C(F)(F)F` [Compound 188], 106 °C; for `Cc1[nH]n(-c2ccccn2)c(=O)c1Cc1ccc(N(C)C)cc1` [Compound 189], 110 °C. `COc1ccc(Cc2c(C)[nH]n(-c3ccccn3)c2=O)cc1` [Compound 191] returned a melting point of 96 °C. As for `COc1ccccc1Cc1c(C)[nH]n(-c2ccccn2)c1=O` [Compound 192], the melting point was 254 °C. Still for that read-out and setting: for `COc1cccc(Cc2c(C)[nH]n(-c3ccccn3)c2=O)c1` [Compound 193] the value was 120 °C; for `CCc1[nH]n(-c2ccccn2)c(=O)c1Cc1ccccc1` [Compound 195], 76 °C. Same read-out and setting: for `Cc1[nH]n(-c2ccccn2)c(=O)c1CCc1ccccc1` [Compound 196] the value was 128 °C; for `Cc1[nH]n(-c2ccc(S(=O)(=O)c3ccccc3)cn2)c(=O)c1Cc1cccnc1` [Compound 197, 5-methyl-2-[5-(phenylsulfonyl)pyridin-2-yl]-4-(pyridin-3-ylmethyl)-1,2-dihydro-3H-pyrazol-3-one], 176 °C. In the case of `CC(C)(C)COC(=O)c1ccc(-n2[nH]cc(Cc3cccnc3)c2=O)nc1` [Compound 198, 2,2-dimethylpropyl 6-[5-oxo-4-(pyridin-3-ylmethyl)-2,5-dihydro-1H-pyrazol-1-yl]pyridine-3-carboxylate], the melting point amounted to 160 °C.
